The supplement of paper PMC10307832

Columns and labels:
Test in all cases: relative viability (nuclei count vs DMSO), 5 days (fraction); higher = more cells survive
Silmitasertib + Olaparib = compound: O=C(O)c1ccc2c(c1)nc(Nc1cccc(Cl)c1)c1ccncc12 [Silmitasertib] + O=C(c1cc(Cc2n[nH]c(=O)c3ccccc23)ccc1F)N1CCN(C(=O)C2CC2)CC1 [Olaparib] (partner 8 µM)
Outline: (§1)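 Lung cancer cell lines were pin-tool dosed in 1536-well plates on the day after seeding, with either a lone drug or a fixed anchor-drug dose plus five library-drug doses (not always all listed) in √10 steps. Nuclei were counted on 4× images after 5 days. Relative viability is the ratio of treated-well to vehicle-well nuclei counts, with each value a median of duplicate plates.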

[1] = compound: O=C(O)c1ccc2c(c1)nc(Nc1cccc(Cl)c1)c1ccncc12 [Silmitasertib] + Cc1cc(Nc2cc(N3CCN(C)CC3)nc(Sc3ccc(NC(=O)C4CC4)cc3)n2)n[nH]1 [Tozasertib] (partner 0.1 µM)
Outline: as §1

[2] = compound: O=C(O)c1ccc2c(c1)nc(Nc1cccc(Cl)c1)c1ccncc12 [Silmitasertib] + O=C(CCCCCCC(=O)Nc1ccccc1)NO [Vorinostat] (partner 1 µM)
Outline: as §1

[3] = compound: O=C(O)c1ccc2c(c1)nc(Nc1cccc(Cl)c1)c1ccncc12 [Silmitasertib] + C[C@]1(O)C[C@@H](c2nc(-c3ccc4ccc(-c5ccccc5)nc4c3)c3c(N)nccn32)C1 [Linsitinib] (partner 1 µM)
Outline: as §1

[4] = compound: O=C(O)c1ccc2c(c1)nc(Nc1cccc(Cl)c1)c1ccncc12 [Silmitasertib] + Cc1nc(Nc2ncc(C(=O)Nc3c(C)cccc3Cl)s2)cc(N2CCN(CCO)CC2)n1 [Dasatinib] (partner 0.075 µM)
Outline: as §1

NCI-H1993 was tested, and the relative viability (Silmitasertib + Olaparib; first compound 0.04 µM) was 1.24, the relative viability (Silmitasertib + Olaparib; first compound 0.4 µM) was 0.804 and the relative viability (Silmitasertib + Olaparib; first compound 1.265 µM) was 0.96. For the same cell line, the relative viability (Silmitasertib + Olaparib; first compound 4 µM) was 0.831, the relative viability ([1]; first compound 0.04 µM) was 0.622 and the relative viability ([1]; first compound 0.4 µM) was 0.523. The relative viability ([1]; first compound 1.265 µM) was 0.522, the relative viability ([1]; first compound 4 µM) was 0.53 and the relative viability ([2]; first compound 0.04 µM) was 0.911. The relative viability ([2]; first compound 0.4 µM) was 0.553, the relative viability ([2]; first compound 1.265 µM) was 0.659 and the relative viability ([2]; first compound 4 µM) was 0.514. For the same cell line, the relative viability ([3]; first compound 0.04 µM) was 0.597, the relative viability ([3]; first compound 0.4 µM) was 0.747 and the relative viability ([3]; first compound 1.265 µM) was 0.695. It also gave a relative viability ([3]; first compound 4 µM) of 0.758, a relative viability ([4]; first compound 0.04 µM) of 0.652 and a relative viability ([4]; first compound 0.4 µM) of 0.502. It also gave a relative viability ([4]; first compound 1.265 µM) of 0.52 and a relative viability ([4]; first compound 4 µM) of 0.586.
For NCI-H2009, the relative viability (Silmitasertib + Olaparib; first compound 0.04 µM) was 0.747, the relative viability (Silmitasertib + Olaparib; first compound 0.4 µM) was 0.638 and the relative viability (Silmitasertib + Olaparib; first compound 1.265 µM) was 0.756. The relative viability (Silmitasertib + Olaparib; first compound 4 µM) was 0.595, the relative viability ([1]; first compound 0.04 µM) was 0.817 and the relative viability ([1]; first compound 0.4 µM) was 0.839. It also gave a relative viability ([1]; first compound 1.265 µM) of 0.719, a relative viability ([1]; first compound 4 µM) of 0.474 and a relative viability ([2]; first compound 0.04 µM) of 0.787. The relative viability ([2]; first compound 0.4 µM) was 0.681, the relative viability ([2]; first compound 1.265 µM) was 0.795 and the relative viability ([2]; first compound 4 µM) was 0.751. For the same cell line, the relative viability ([3]; first compound 0.04 µM) was 1.27, the relative viability ([3]; first compound 0.4 µM) was 1.2 and the relative viability ([3]; first compound 1.265 µM) was 1.16. It also gave a relative viability ([3]; first compound 4 µM) of 0.77, a relative viability ([4]; first compound 0.04 µM) of 0.35 and a relative viability ([4]; first compound 0.4 µM) of 0.297. For the same cell line, the relative viability ([4]; first compound 1.265 µM) was 0.246 and the relative viability ([4]; first compound 4 µM) was 0.218.
NCI-H2023 was tested, and the relative viability (Silmitasertib + Olaparib; first compound 0.04 µM) was 0.532, the relative viability (Silmitasertib + Olaparib; first compound 0.4 µM) was 0.363 and the relative viability (Silmitasertib + Olaparib; first compound 1.265 µM) was 0.46. It also gave a relative viability (Silmitasertib + Olaparib; first compound 4 µM) of 0.468, a relative viability ([1]; first compound 0.04 µM) of 0.46 and a relative viability ([1]; first compound 0.4 µM) of 0.321. For the same cell line, the relative viability ([1]; first compound 1.265 µM) was 0.24, the relative viability ([1]; first compound 4 µM) was 0.252 and the relative viability ([2]; first compound 0.04 µM) was 0.839. The relative viability ([2]; first compound 0.4 µM) was 0.268, the relative viability ([2]; first compound 1.265 µM) was 0.63 and the relative viability ([2]; first compound 4 µM) was 0.374. The relative viability ([3]; first compound 0.04 µM) was 0.741, the relative viability ([3]; first compound 0.4 µM) was 0.62 and the relative viability ([3]; first compound 1.265 µM) was 0.532. It also gave a relative viability ([3]; first compound 4 µM) of 0.472, a relative viability ([4]; first compound 0.04 µM) of 0.547 and a relative viability ([4]; first compound 0.4 µM) of 0.443. The relative viability ([4]; first compound 1.265 µM) was 0.548 and the relative viability ([4]; first compound 4 µM) was 0.416.
NCI-H2085 was tested, and the relative viability (Silmitasertib + Olaparib; first compound 0.04 µM) was 0.805, the relative viability (Silmitasertib + Olaparib; first compound 0.4 µM) was 0.529 and the relative viability (Silmitasertib + Olaparib; first compound 1.265 µM) was 0.731. It also gave a relative viability (Silmitasertib + Olaparib; first compound 4 µM) of 0.684, a relative viability ([1]; first compound 0.04 µM) of 0.82 and a relative viability ([1]; first compound 0.4 µM) of 0.737. It also gave a relative viability ([1]; first compound 1.265 µM) of 0.602, a relative viability ([1]; first compound 4 µM) of 0.533 and a relative viability ([2]; first compound 0.04 µM) of 0.837. The relative viability ([2]; first compound 0.4 µM) was 0.638, the relative viability ([2]; first compound 1.265 µM) was 0.725 and the relative viability ([2]; first compound 4 µM) was 0.548. It also gave a relative viability ([3]; first compound 0.04 µM) of 0.95, a relative viability ([3]; first compound 0.4 µM) of 0.8 and a relative viability ([3]; first compound 1.265 µM) of 0.828. The relative viability ([3]; first compound 4 µM) was 0.806, the relative viability ([4]; first compound 0.04 µM) was 0.253 and the relative viability ([4]; first compound 0.4 µM) was 0.233. The relative viability ([4]; first compound 1.265 µM) was 0.245 and the relative viability ([4]; first compound 4 µM) was 0.265.
Work on NCI-H2087 yielded a relative viability (Silmitasertib + Olaparib; first compound 0.04 µM) of 0.614, a relative viability (Silmitasertib + Olaparib; first compound 0.4 µM) of 0.217 and a relative viability (Silmitasertib + Olaparib; first compound 1.265 µM) of 0.465. The relative viability (Silmitasertib + Olaparib; first compound 4 µM) was 0.38, the relative viability ([1]; first compound 0.04 µM) was 0.264 and the relative viability ([1]; first compound 1.265 µM) was 0.152. For the same cell line, the relative viability ([1]; first compound 4 µM) was 0.132, the relative viability ([2]; first compound 0.04 µM) was 0.669 and the relative viability ([2]; first compound 0.4 µM) was 0.506. It also gave a relative viability ([2]; first compound 1.265 µM) of 0.672, a relative viability ([2]; first compound 4 µM) of 0.589 and a relative viability ([3]; first compound 0.04 µM) of 0.991. For the same cell line, the relative viability ([3]; first compound 0.4 µM) was 0.75, the relative viability ([3]; first compound 1.265 µM) was 0.608 and the relative viability ([3]; first compound 4 µM) was 0.408. For the same cell line, the relative viability ([4]; first compound 0.04 µM) was 0.828, the relative viability ([4]; first compound 1.265 µM) was 0.695 and the relative viability ([4]; first compound 4 µM) was 0.308.
NCI-H2126 showed a relative viability (Silmitasertib + Olaparib; first compound 0.04 µM) of 0.914, a relative viability (Silmitasertib + Olaparib; first compound 0.4 µM) of 0.73 and a relative viability (Silmitasertib + Olaparib; first compound 1.265 µM) of 0.821. It also gave a relative viability (Silmitasertib + Olaparib; first compound 4 µM) of 0.818, a relative viability ([1]; first compound 0.04 µM) of 0.845 and a relative viability ([1]; first compound 0.4 µM) of 0.759. It also gave a relative viability ([1]; first compound 1.265 µM) of 0.793, a relative viability ([1]; first compound 4 µM) of 0.709 and a relative viability ([2]; first compound 0.04 µM) of 0.863. The relative viability ([2]; first compound 0.4 µM) was 0.607, the relative viability ([2]; first compound 1.265 µM) was 0.693 and the relative viability ([2]; first compound 4 µM) was 0.406. The relative viability ([3]; first compound 0.04 µM) was 0.722, the relative viability ([3]; first compound 0.4 µM) was 0.737 and the relative viability ([3]; first compound 1.265 µM) was 0.626. For the same cell line, the relative viability ([3]; first compound 4 µM) was 0.585, the relative viability ([4]; first compound 0.04 µM) was 0.602 and the relative viability ([4]; first compound 0.4 µM) was 0.584. For the same cell line, the relative viability ([4]; first compound 1.265 µM) was 0.573 and the relative viability ([4]; first compound 4 µM) was 0.539.
For NCI-H2228, the relative viability (Silmitasertib + Olaparib; first compound 0.04 µM) was 0.713, the relative viability (Silmitasertib + Olaparib; first compound 0.4 µM) was 0.208 and the relative viability (Silmitasertib + Olaparib; first compound 1.265 µM) was 0.474. For the same cell line, the relative viability (Silmitasertib + Olaparib; first compound 4 µM) was 0.668, the relative viability ([1]; first compound 0.04 µM) was 0.287 and the relative viability ([1]; first compound 1.265 µM) was 0.247. The relative viability ([1]; first compound 4 µM) was 0.23, the relative viability ([2]; first compound 0.04 µM) was 0.848 and the relative viability ([2]; first compound 0.4 µM) was 0.513. For the same cell line, the relative viability ([2]; first compound 1.265 µM) was 0.779, the relative viability ([2]; first compound 4 µM) was 0.875 and the relative viability ([3]; first compound 0.04 µM) was 0.787. For the same cell line, the relative viability ([3]; first compound 0.4 µM) was 0.548, the relative viability ([3]; first compound 1.265 µM) was 0.786 and the relative viability ([3]; first compound 4 µM) was 0.628. The relative viability ([4]; first compound 0.04 µM) was 0.517, the relative viability ([4]; first compound 1.265 µM) was 0.523 and the relative viability ([4]; first compound 4 µM) was 0.528.
For NCI-H2347, the relative viability (Silmitasertib + Olaparib; first compound 0.04 µM) was 0.602, the relative viability (Silmitasertib + Olaparib; first compound 0.4 µM) was 0.52 and the relative viability (Silmitasertib + Olaparib; first compound 1.265 µM) was 0.56. The relative viability (Silmitasertib + Olaparib; first compound 4 µM) was 0.507, the relative viability ([1]; first compound 0.04 µM) was 0.663 and the relative viability ([1]; first compound 1.265 µM) was 0.56. The relative viability ([1]; first compound 4 µM) was 0.419, the relative viability ([2]; first compound 0.04 µM) was 0.565 and the relative viability ([2]; first compound 0.4 µM) was 0.502. For the same cell line, the relative viability ([2]; first compound 1.265 µM) was 0.565, the relative viability ([2]; first compound 4 µM) was 0.479 and the relative viability ([3]; first compound 0.04 µM) was 1.01. The relative viability ([3]; first compound 0.4 µM) was 0.952, the relative viability ([3]; first compound 1.265 µM) was 0.967 and the relative viability ([3]; first compound 4 µM) was 0.848. It also gave a relative viability ([4]; first compound 0.04 µM) of 0.581, a relative viability ([4]; first compound 1.265 µM) of 0.313 and a relative viability ([4]; first compound 4 µM) of 0.254.
